Measurements taken from paper PMC12345137 (mBio, 2025).
Where two headings read alike, the source gives them in different places. Positions of bridges follow the written chain, without caps; N, C: chain ends. Residues, ends and D or L forms follow the SMILES beside them.

Experiments:
[1] = target: S. aureus agr-I spa-GFP reporter strain (JE2, MRSA) (Staphylococcus aureus, UniProt A0A0H2XKA3); assay: Fluorescence reporter assay for agr deactivation of virulent S. aureus (JE2 spa-GFP); format: cell-based; settings: GFP expression relative to non-induced cultures
Chain of S. aureus agr-I spa-GFP reporter strain (JE2, MRSA) (A0A0H2XKA3 entry or part of it): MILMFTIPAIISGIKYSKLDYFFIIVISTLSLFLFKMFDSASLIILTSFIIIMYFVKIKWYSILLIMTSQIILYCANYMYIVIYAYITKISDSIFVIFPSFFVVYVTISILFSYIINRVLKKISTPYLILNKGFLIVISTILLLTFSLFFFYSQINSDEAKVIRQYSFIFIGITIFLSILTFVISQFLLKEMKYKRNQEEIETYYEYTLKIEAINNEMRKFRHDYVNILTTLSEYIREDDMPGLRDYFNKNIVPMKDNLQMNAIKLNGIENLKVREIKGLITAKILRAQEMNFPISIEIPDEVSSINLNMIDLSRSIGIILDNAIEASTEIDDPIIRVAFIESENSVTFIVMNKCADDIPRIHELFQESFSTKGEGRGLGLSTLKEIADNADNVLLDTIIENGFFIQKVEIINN
Description: A fluorescent reporter strain of S. aureus JE2 containing a plasmid with a spa::GFP promoter was constructed by transforming the strain with pALC1741 ([52]). Cultures of the reporter strain were grown from single colonies in TSB medium containing chloramphenicol (CAM, 10 μg/mL) and S. aureus AIP-I (1) (concentrations = 500 nM, 100 nM, or 50 nM) to OD600 = 0.2–0.3 (early exponential phase) at 37°C. Assays were performed in sterile black 96-well plates with clear bottoms. Peptide solutions (15 μL) in 1:5 serial dilutions from DMSO stock solutions (1 mM) in TSB medium were added to the 96-well plate in technical triplicate followed by the induced bacterial cultures (135 μL). Control wells were uninduced cultures containing no S. aureus AIP-I (1). The 96-well plates were incubated in a plate reader at 37°C shaking at 283 rpm and fluorescence (GFP: excitation 479 nm, emission 520 nm, automatic gain), and OD600 values were continuously measured. […] Relative GFP expression was plotted to obtain IC50 values by non-linear regression with variable slope using GraphPad Prism 10.4 software. All assays were performed in biological triplicate.

[2] = system: methicillin resistant S. aureus (MRSA43484); format: in vivo, Balb/c female mice
Description: The mouse model was performed under contract at Statens Serum Institut (DK) essentially as previously described ([64]). […] All animal experiments were approved by the National Committee of Animal Ethics, Denmark. Mice were anesthetized, and the hair was removed on a 2 cm^2 skin area on the back, and thereafter, the outermost layer of the skin was scraped off with a dermal curette to obtain a 1 cm^2 superficial skin lesion. For vehicle control and Fucidin treatment, 10 μL inoculum containing approximately 10^7 CFU of methicillin resistant S. aureus (MRSA43484) were spread on the skin lesions. […] This leads to the absolute application of 1 nmol, corresponding to ~10-fold less inhibitory AIP than previously tested in other murine epicutaneous infection models ([12], [13], [15]). After the inoculum had dried, the mice were placed in a cage and kept in a warming cabinet until fully awake. The topical skin treatment with Fucidin was initiated one day after inoculation (days 2, 3, and 4) by spreading 50 μL of Fucidin on the inoculated skin area once a day. Skin lesion size and body weight were measured on days 1, 2, and 4 of all mice. Mice were sacrificed on days 1 (n = 8 vehicle), 2 (n = 4 vehicle, Fucidin, 33), and 4 (n = 4 vehicle, Fucidin, 33), and the infected skin area was cut out and homogenized to determine the CFU count in the skin lesions. Statistical testing was conducted using one-way analysis of variance (ANOVA) with multiple comparisons (Dunnett’s test) and an alpha level of 0.05.

[3] = system: S. epidermidis (SE) agr-III; settings: fluorescence; at 10 µM; ref (11); cited from earlier work
S. aureus (SA) agr-II = settings: b-lactamase, cited from earlier work
S. aureus (SA) agr-III = settings: b-lactamase, cited from earlier work

NCCCC[C@H](N)C(=O)N[C@@H](Cc1ccc(O)cc1)C(=O)N[C@@H](Cc1ccc(O)cc1)C(=O)N1CCC[C@H]1C(=O)N[C@H]1CSC(=O)[C@H](Cc2ccccc2)NC(=O)[C@H](Cc2ccc(O)cc2)NC(=O)CNC(=O)[C@H](Cc2c[nH]c3ccccc23)NC1=O [compound 33, S. simulans AIP-II] (H-KYYPCWGYF; thioester 5-C)
IC50 ([1]; induced with 1 [50 nM]): 3.3 nM
IC50 ([1]; induced with 1 [100 nM]): 5.2 nM
IC50 ([1]; induced with 1 [500 nM]): 18.4 nM
skin lesion size compared with the vehicle control after 48 h ([2]; 33: 100 μM in MRSA inoculum (10^7 CFU), single, Fucidin daily, P = 0.0174 (33), P = 0.0108 (fusidic acid)): significant reduction
skin lesion size compared with the vehicle control after 96 h ([2]; 33: 100 μM in MRSA inoculum (10^7 CFU), single, Fucidin daily, P = 0.0249 (33), P = 0.0202 (fusidic acid)): significant reduction
decrease in bacterial load compared with vehicle control after 4 days ([2]; 33: 100 μM single (P = 0.009), fusidic acid daily (P = 0.0168)): ~ 60 fold

S. aureus AIP-III D4A [compound 57, reference compound]
inhibition at 10 µM, SE agr-III [3]: ~ 25%

CC[C@H](C)[C@@H]1NC(=O)[C@H](Cc2ccccc2)NC(=O)[C@H](CC(=O)O)NC(=O)[C@@H](NC(=O)[C@@H](NC(=O)[C@H](CO)NC(=O)[C@@H](N)Cc2ccc(O)cc2)[C@@H](C)O)CSC(=O)[C@H](CCSC)NC1=O [compound 1, S. aureus AIP-I] (H-YSTCDFIM; thioester 4-C)
IC50 (S. aureus (SA) agr-II; ref (2)): 3.4 ± 1.2 nM
IC50 (S. aureus (SA) agr-II; ref (4)): 25 nM
IC50 (S. aureus (SA) agr-III; ref (2)): 3.1 ± 1.3 nM
IC50 (S. aureus (SA) agr-III; ref (4)): 3 nM
